The values that follow come from ChEMBL document CHEMBL1201862, “PubChem BioAssay data set” (2004).

SMILES strings stand for the structures.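 These data come from cells grown in 96-well plates and exposed to compound for 48 hours at five concentrations. Here, GI50 denotes the concentration required for 50% inhibition of growth.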 The source made the active and inactive calls. No stated cut-off is given here; in the data, active = GI50 up to about 1.1 µM and inactive = higher.

Some test systems named below: SK-OV-3; TK-10; A549; A498; OVCAR-8; NCI-H460; EKVX; RXF 393; NCI-H23; HCC 2998; 786-0; HCT-116; UO-31; NCI-H226; MOLT-4; OVCAR-3; SK-MEL-28; MDA-MB-231; HCT-15; HOP-92.
Common to all, as to assay: NCI-60 cell line screen, 48 h

`CCCn1c2ccccc2c2ccc3c(c21)C(=O)C=CC3=O`: the GI50 with SK-OV-3 was > 10 µM (inactive); in the test with TK-10, 2.09 µM (inactive); in the test with A549, > 10 µM (inactive); in the test on A498 it was > 10 µM (inactive); in the test on OVCAR-8, 2.54 µM (inactive); in the test on NCI-H460, > 10 µM (inactive). Further, the GI50 is > 5.32 µM (inactive) in the test on EKVX; 2.1 µM (inactive) with RXF 393; 2.58 µM (inactive) in the test on NCI-H23; > 9.68 µM (inactive) with HCC 2998; 1.84 µM (inactive) with 786-0; 1.63 µM (inactive) in the test with HCT-116. The GI50 was 4.06 µM (inactive) in the test with UO-31; 6.38 µM (inactive) in the test on NCI-H226; 0.904 µM (active) in the test with MOLT-4; 2.01 µM (inactive) in the test with OVCAR-3; 2.2 µM (inactive) in the test on SK-MEL-28; 2.06 µM (inactive) with MDA-MB-231. Also, the GI50 in the test with HCT-15 was 2.24 µM; in the test with HOP-92, 1.85 µM (inactive).
`CC(NC1=CC(=O)c2ncccc2C1=O)C(O)c1ccccc1` (stereo not given): the GI50 with SK-OV-3 was 16.1 µM (inactive); in the test with TK-10, 38 µM (inactive); with A549, 3.03 µM (inactive); with A498 it was 13.4 µM (inactive); with OVCAR-8, 4.37 µM (inactive); in the test with NCI-H460 it was 1.28 µM (inactive). Also, the GI50 is 12.6 µM (inactive) in the test with EKVX; 7.76 µM (inactive) in the test with RXF 393; 1.62 µM (inactive) in the test on NCI-H23; 10.2 µM (inactive) in the test on HCC 2998; 8.69 µM (inactive) in the test with 786-0; 3.6 µM (inactive) in the test on HCT-116. Besides, the GI50 with UO-31 was 2.95 µM (inactive); in the test on NCI-H226, 5.55 µM (inactive); in the test with MOLT-4, 8.63 µM (inactive); in the test on OVCAR-3 it was 2.45 µM (inactive); in the test with SK-MEL-28, 3.32 µM (inactive); with MDA-MB-231, 2.41 µM (inactive). In addition, the GI50 in the test on HCT-15 was 3.91 µM; with HOP-92, 13.2 µM (inactive).
In the case of `C=CC/C(C(=O)OC)=C(/C(=O)OC)N(CCC)CCC`, the GI50 in the test on SK-OV-3, with TK-10, in the test on A549, with A498, in the test on OVCAR-8 and with NCI-H460 was > 100 µM (inactive) in each case. The GI50 in the test on EKVX is 74.3 µM (inactive); with RXF 393, > 100 µM (inactive); in the test with NCI-H23, > 100 µM (inactive); in the test on HCC 2998, > 100 µM (inactive); in the test on 786-0, > 100 µM (inactive); with HCT-116, 57.9 µM (inactive). The GI50 with UO-31 was 94.8 µM (inactive); with NCI-H226 it was > 100 µM (inactive); in the test on MOLT-4, 61.8 µM (inactive); with OVCAR-3 it was 36.1 µM (inactive); in the test on SK-MEL-28, > 100 µM (inactive); in the test on MDA-MB-231 it was > 100 µM (inactive). For the same molecule, the GI50 in the test with HCT-15 was more than 100 µM; in the test on HOP-92 it was 64 µM (inactive).
Regarding `Cc1cn(C2CC(N=[N+]=[N-])C(CO)O2)c(=O)n(CCCCO)c1=O` (stereo not given), the GI50 in the test with SK-OV-3, in the test with TK-10, in the test on A549, with A498, in the test on OVCAR-8 and in the test on NCI-H460 was > 100 µM (inactive) in each case. Besides, the GI50 with EKVX, with RXF 393, in the test on NCI-H23, with HCC 2998, with 786-0 and in the test on HCT-116 was > 100 µM (inactive) each time. Also, the GI50 in the test with UO-31, in the test on NCI-H226, in the test with MOLT-4, with OVCAR-3, in the test on SK-MEL-28 and in the test with MDA-MB-231 was > 100 µM (inactive) each time. The GI50 with HCT-15 is more than 100 µM; with HOP-92 it was > 100 µM (inactive).
Take `Nc1nccc(Nc2ccc(S(N)(=O)=O)cc2)n1`: the GI50 with SK-OV-3, in the test on TK-10, with A549, with A498, in the test on OVCAR-8 and with NCI-H460 was > 100 µM (inactive) throughout. The GI50 with EKVX, in the test on RXF 393, in the test with NCI-H23, in the test on HCC 2998, in the test on 786-0 and in the test on HCT-116 was > 100 µM (inactive) in each case. Moreover, the GI50 is > 100 µM (inactive) in the test on UO-31; 35.2 µM (inactive) in the test on NCI-H226; > 100 µM (inactive) with MOLT-4; > 100 µM (inactive) in the test with OVCAR-3; > 100 µM (inactive) in the test with SK-MEL-28; > 100 µM (inactive) with MDA-MB-231. Besides, the GI50 in the test on HCT-15 was more than 100 µM; in the test with HOP-92, > 100 µM (inactive).
